In paper PMC9828538, “Antigiardial Activity of Novel Guanidine Compounds” (Chemmedchem, 2022):
≈ marks a conversion by molar mass, not a printed value. Structures can show the parent of a compound that is named as a salt. Where two headings read alike, the source gives them in different places.

Assays:
[1] = system: Giardia duodenalis trophozoites (BAH2c2 strain); assay: Resazurin reduction assay on Giardia trophozoites in vitro; type: cell-based; details: for MIC: minimum inhibitory concentration, read-out: Antigiardial activity MIC (24 h); for Selectivity ratio: higher ratios = more selective; for Antigiardial activity MLC (24 h): minimum lethal concentration; for Antigiardial activity at 5 h: 25 μM
Description: (§1) Biology Materials and Methods:
Metronidazole was sourced from sigma.
Chemicals used for the culture of Giardia in vitro were sourced as follows: glucose and L-cysteine (ACROS organics, Thermo Fisher Scientific, Scoresby, Vic), Ammonium Iron (III) citrate, ascorbic Acid (Sigma -aldrich, Castle Hill, NSW), potassium dihydrogen orthophosphate (UNIVAR, Ingleburn, NSW), bovine bi le (Fluka analytical (BD)), di-potassium hydrogen orthophosphate (Fronine laboratory supplies, Riverstone, NSW).
G. duodenalis (BAH2c2 strain) was cultivated according to the method of Clark and Diamond in Keister’s modified TYI-S-33 medium, supplemented with heat inactivated foetal bovine serum (Hyclone™, Thermo Scientific, Scoresby, Vic) at 37°C in plastic 9 mL screw-capped test tubes (nunc). Subcultures were performed once a confluent monolayer was observed, approximately 2 – 3 times per week (Clark and Diamond, 2002).
(§2) CaCo-2 cells, a human cell line derived from a primary colonic tumour, were sourced from Cellbank Australia and were maintained in MEM supplemented with 2 mM glutamine, 1% non-essential amino acids and 10% FCS (Thermo Scientific). Cells were passaged when confluent, approximately 1-2 times per week. Vero cells were also obtained from Cellbank Australia and maintained as above.
(§3) In vitro drug efficacy assays
Resazurin Reduction Assay […]
tested to identify the IC50 and minimum lethal concentration (MLC). For all assays the media of confluent cultures was replaced with fresh media and the cultures were placed on ice for 40 minutes to detach trophozoites.
Trophozoites were enumerated using a haemocytometer and 50 000 trophozoites were added to each test well of a 96 well plate. Either single concentrations (final concentration 25 μM) for the screening assay or tripling dilutions […]
wells. The assays were repeated in triplicate with metronidazole and a DMSO (vehicle only) used as controls. Plates were incubated under anaerobic conditions (anaerogen sachet, Thermofisher scientific) for 5 or 24 hours at 37°C following which the viability of treated cells was determined using the resazurin reduction assay (Benere et al., 2007). The media was removed and replaced with an equal volume of warm PBS. Resazurin (Sigma) was then added at 10% of the total volume of the wells. Plates were further incubated for colour development and absorbance read at 570 nm and 630 nm. Resazurin reduction was calculated according to the following formula: […]
(§4) CaCo-2 or Vero cells, maintained as outlined above, were collected via trypsinisation and enumerated using trypan blue and a haemocytometer. Select analogues were prepared in DMSO so that the final concentration in the assay was 25 μM. 1 X 10^5 cells/ml were added to each assay with the appropriate drug dilution. Assays were completed in 96 well plates and incubated for 24 hours at 37°C, 5% CO2 in a humidified incubator. After incubation cells were […]
(§5) washed with warm PBS before the addition of 10% resazurin in PBS. Assays were incubated to allow colour development and absorbance read at 630 and 570nm. Activity of the analogues against mammalian cells was calculated according to the formula stated above.

Escherichia coli = assay: Antibacterial activity against gram negative bacteria (E. coli); type: cell-based
Experimental: as §1
Metronidazole was sourced from sigma. […]
hydrogen orthophosphate (Fronine laboratory supplies, Riverstone, NSW).
Subcultures were performed once a confluent
Scientific). […] Vero cells were also obtained from Cellbank Australia and maintained as above.
as §3
Resazurin Reduction Assay
For all assays the media of confluent cultures
2007). […] Resazurin (Sigma) was then
Plates were further incubated for colour development and absorbance read at 570 nm and 630 nm. Resazurin reduction was calculated according to the following formula: […]
broth for a random selection of compounds (Thermofisher Scientific). Compounds were diluted in DMSO to 100X […]
Cells were incubated for 18-24 hrs before interpretation of results. […]
blue and a haemocytometer. […]
was 25 μM. […] Assays were completed
After incubation cells were […]

CaCo-2 cells = details: human, 24 h, 25 μM
Experimental: (§6) Biology Materials and Methods: […]
as §2
(§7) In vitro drug efficacy assays […]
2007). The media was removed and replaced with an equal volume of warm PBS. Resazurin (Sigma) was then added at 10% of the total volume of the wells. Plates were further incubated for colour development and absorbance read at 570 nm and 630 nm. Resazurin reduction was calculated according to the following formula: […]
as §4, §5

Vero cells = assay: In vitro cytotoxicity, Vero cells; details: 25 μM, 24 h; for Toxicity (% growth control): Percent Vero cell growth; for Toxicity (Y/N): Vero cells
Experimental: as §6, §2, §7
The media was removed and replaced with an equal volume of warm PBS. Resazurin (Sigma) was then added at 10% of the total volume of the wells. Plates were further incubated for colour development and absorbance read at 570 nm and 630 nm. Resazurin reduction was calculated according to the following formula: […]
CaCo-2 or Vero cells, maintained as outlined above, were collected via trypsinisation and enumerated using trypan blue and a haemocytometer. Select analogues were prepared in DMSO so that the final concentration in the assay […]
in 96 well plates and incubated for 24 hours at 37°C, 5% CO2 in a humidified incubator. After incubation cells were […]
washed with warm PBS before the addition of 10% resazurin in PBS. Assays were incubated to allow colour development and absorbance read at 630 and 570nm. Activity of the analogues against mammalian cells was calculated according to the formula stated above. […]
reduction assay the mean and standard error of the mean was determined with each assay completed in triplicate.
The IC50 was calculated using the log (inhibitor) vs. normalised response – variable slope function in Graphpad […]

[2] = Giardia duodenalis, 24 h, read-out: Antigiardial activity IC50 (24 h)
[3] = toxicity tested at 25 μM vs 24 h IC50, Tables 1-3
[4] = Tables 1-3 (toxic if >20 % cells affected)
[5] = 24 h, read-out: Antigiardial activity IC50 (24 h)
[6] = Table 4 (toxic if >10 % cells affected)
[7] = toxicity tested at 25 μM vs 5 h IC50, Table 4
[8] = Giardia duodenalis, 5 h, read-out: Antigiardial activity IC50 (5 h)

Compound | IC50 [1, 2] | MIC ([1]; Giardia duodenalis, 24 h) | other results
N=C(NN=Cc1ccc(F)cc1)NN=Cc1ccc(F)cc1 [Compound 7] | 6520 nM | 12.5 µM (≈ 3.77 µg/mL) | –
N=C(NN=Cc1cccc(Cl)c1)NN=Cc1cccc(Cl)c1 [Compound 8] | 3500 nM | 6.25 µM (≈ 2.09 µg/mL) | –
N=C(NN=Cc1cccc(Br)c1)NN=Cc1cccc(Br)c1 [Compound 9] | 2900 nM | 25 µM (≈ 10.6 µg/mL) | –
N=C(NN=Cc1cccc(F)c1)NN=Cc1cccc(F)c1 [Compound 10] | > 25000 nM | > 25 µM | –
Cl.N=C(NN=Cc1ccccc1Br)NN=Cc1ccccc1Br [Compound 11] | 800 nM | 25 µM | Activity against gram negative bacteria / E. coli (Escherichia coli): no antibacterial activity; Toxicity (% growth control) (CaCo-2 cells): 79.1±2.3%; Selectivity ratio [1, 3]: >31.3
Cl.N=C(NN=Cc1ccccc1Cl)NN=Cc1ccccc1Cl [Compound 12] | 12400 nM | 25 µM | Activity against gram negative bacteria / E. coli (Escherichia coli): no antibacterial activity
Cl.N=C(NN=Cc1ccccc1F)NN=Cc1ccccc1F [Compound 13] | > 25000 nM | > 25 µM | Toxicity (% growth control) (Vero cells): 93.9±1.9%; Toxicity (Y/N) (Vero cells; [4]): N (compounds are indicated as toxic if >20 % cells are affected)
Cc1ccc(C=NNC(=N)NN=Cc2ccc(C)cc2)cc1 [Compound 14] | – | 25 µM (≈ 7.33 µg/mL) | –
Cc1cccc(C=NNC(=N)NN=Cc2cccc(C)c2)c1 [Compound 15] | 4900 nM | 6.25 µM (≈ 1.83 µg/mL) | –
Cc1ccccc1C=NNC(=N)NN=Cc1ccccc1C [Compound 16] | – | 25 µM (≈ 7.33 µg/mL) | –
N=C(NN=Cc1ccc(-c2ccccc2)cc1)NN=Cc1ccc(-c2ccccc2)cc1 [Compound 17] | 400 nM | 2.8 µM (≈ 1.17 µg/mL) | –
Cl.N=C(NN=Cc1ccccc1-c1ccccc1)NN=Cc1ccccc1-c1ccccc1 [Compound 18] | 2800 nM | > 25 µM | Toxicity (% growth control) (CaCo-2 cells): 75.4±3.4%; Selectivity ratio [1, 3]: >8.9
CCCc1ccc(C=NNC(=N)NN=Cc2ccc(CCC)cc2)cc1 [Compound 19] | 800 nM | 8.3 µM (≈ 2.9 µg/mL) | –
CCCCc1ccc(C=NNC(=N)NN=Cc2ccc(CCCC)cc2)cc1 [Compound 20] | 1900 nM | 8.3 µM (≈ 3.13 µg/mL) | –
CC(C)c1ccc(C=NNC(=N)NN=Cc2ccc(C(C)C)cc2)cc1 [Compound 21] | 1900 nM | 6.25 µM (≈ 2.18 µg/mL) | –
CC(C)(C)c1ccc(C=NNC(=N)NN=Cc2ccc(C(C)(C)C)cc2)cc1 [Compound 22] | 3200 nM | 8.3 µM (≈ 3.13 µg/mL) | –
C#Cc1cccc(C=NNC(=N)NN=Cc2cccc(C#C)c2)c1 [Compound 23] | 1200 nM | 25 µM (≈ 7.83 µg/mL) | –

Compound | IC50 [1, 2] | MIC ([1]; Giardia duodenalis, 24 h) | other results
COc1ccc(C=NNC(=N)NN=Cc2ccc(OC)cc2)cc1.Cl [Compound 24] | 5990 nM | – | Toxicity (Y/N) (Vero cells; [4]): Y^[e] (compounds are indicated as toxic if >20 % cells are affected); Selectivity ratio [1, 3]: >4.2
COc1cccc(C=NNC(=N)NN=Cc2cccc(OC)c2)c1 [Compound 25] | > 25000 nM | – | –
COc1ccccc1C=NNC(=N)NN=Cc1ccccc1OC.Cl [Compound 26] | – | – | Antigiardial activity MLC (24 h) ([1]; 24 h): >25 µM; IC50 [1, 5]: > 25000 nM
N=C(NN=Cc1ccc(O)cc1)NN=Cc1ccc(O)cc1 [Compound 27] | > 25000 nM | – | –
N=C(NN=Cc1cccc(O)c1)NN=Cc1cccc(O)c1 [Compound 28] | > 25000 nM | – | –
N=C(NN=Cc1ccccc1O)NN=Cc1ccccc1O [Compound 29] | > 25000 nM | – | –
N=C(NN=Cc1ccc(OC(F)(F)F)cc1)NN=Cc1ccc(OC(F)(F)F)cc1 [Compound 30, 2,2′‐bis{[4‐(trifluoromethoxy)phenyl]methylene}carbonimidic dihydrazide hydrochloride] | 200 nM | – | –
CSc1ccc(C=NNC(=N)NN=Cc2ccc(SC)cc2)cc1 [Compound 31] | 900 nM | – | –
N=C(NN=Cc1ccc(SC(F)(F)F)cc1)NN=Cc1ccc(SC(F)(F)F)cc1 [Compound 32, 2,2′‐bis{[4‐(trifluoromethylsulfanyl)phenyl]methylene}carbonimidic dihydrazide hydrochloride] | 200 nM | – | –
CN(C)c1ccc(C=NN=C(N)NN=Cc2ccc(N(C)C)cc2)cc1 [Compound 33] | – | – | Antigiardial activity MLC (24 h) ([1]; 24 h): 25 µM; IC50 [1, 5]: 1100 nM
Cl.N=C(NN=Cc1ccc(Cl)cc1Cl)NN=Cc1ccc(Cl)cc1Cl [Compound 34] | – | – | Toxicity (% growth control) (Vero cells): 55.8±4.3%; Toxicity (Y/N) (Vero cells; [6]): Y (compounds are indicated as toxic if >10 % cells are affected); Selectivity ratio [1, 7]: >10.0
Cl.N=C(NN=Cc1cc(F)ccc1F)NN=Cc1cc(F)ccc1F [Compound 37] | – | – | Antigiardial activity at 5 h ([1]; 5 h): inactive
Cl.N=C(NN=Cc1c(F)c(F)c(F)c(F)c1F)NN=Cc1c(F)c(F)c(F)c(F)c1F [Compound 39] | – | – | Antigiardial activity at 5 h ([1]; 5 h): inactive
CC(=O)Nc1cc(Cl)ccc1C=NNC(=N)NN=Cc1ccc(Cl)cc1NC(C)=O.Cl [Compound 40] | – | – | Toxicity (% growth control) (CaCo-2 cells): 83.1±4.4%; IC50 [1, 8]: 800 nM; Selectivity ratio [1, 7]: >31.3
COc1cc(C=NNC(=N)NN=Cc2cc(Br)c(OC)c(OC)c2)cc(Br)c1OC.Cl [Compound 42] | – | – | Toxicity (Y/N) (Vero cells; [6]): Y^[e] (compounds are indicated as toxic if >10 % cells are affected); IC50 [1, 8]: 2700 nM; Selectivity ratio [1, 7]: >9.3
COc1ccc(C=NNC(=N)NN=Cc2ccc(OC)c(OC)c2)cc1OC [Compound 44] | – | – | IC50 ([1]; 5 h, read-out: Antigiardial activity IC50 (5 h)): 24900 nM; IC50 [1, 8]: ≤ 25000 nM
COc1cc(C=NNC(=N)NN=Cc2ccc(O)c(OC)c2)ccc1O [Compound 47] | – | – | IC50 [1, 8]: > 25000 nM
